Data published in patent US11992493B1, “Use of compound or pharmaceutical derivative thereof in inhibiting CaMK2G protein activity” (priority 2022, dated 2024).
pKd: −log10 of the molar value.

Assays:
IMQ-induced mice = test: IMQ-induced psoriatic mouse model: PASI score, erythema, scaling, skin thickness, skin phenotype; type: in vivo; conditions: smeared on skin, Day−2 to Day3
Method: (§1) DMSO is used to dissolve T2533 powder, the T2533 powder is weighed according to different dosage, and then diluted with β-cyclodextrin, the final concentration of DMSO is not more than 5%. The dose gradient of T2533 is 0 mg/kg, 2.5 mg/kg, 5 mg/kg, and 10 mg/kg. Each mouse is calculated as 20 grams (g), and each mouse needs to be administered 0 mg, 0.05 mg, 0.1 mg, and 0.2 mg per day.
(§2) Seven-week-old C57/BL6 mice are bred and modeled in SPF-level environment. The experimental groups are as follows: (1) applying the skin with imiquimod (IMQ) and 0 mg/kg T2533; (2) applying the skin with IMQ and 2.5 mg/kg T2533; (3) applying the skin with IMQ and 5 mg/kg T2533; (4) applying the skin with IMQ and 10 mg/kg T2533; (5) applying the skin with Vaseline® and 0 mg/kg T2533; (6) applying the skin with Vaseline® and 2.5 mg/kg T2533; (7) applying the skin with Vaseline® and 5 mg/kg T2533; and (8) applying the skin with Vaseline® and 10 mg/kg T2533.
(§3) In each group of 6 mice, the hair on the back of the mice is shaved to make the exposed skin reach 4 square centimeters. The start date of the experiment is set as Day−2, and the end date is set as Day4. From Day−2 to Day3, 200 μL of liquid drug is taken in the morning and evening every day and evenly smeared on the skin of mice until it is absorbed. From Day 0 to Day 3, 62.5 mg IMQ is applied to each mouse at noon of every day. The skin of mice is scored every day, the mice are euthanized on Day 4, and the skin tissues are taken for a series of detection.
The PASI score results and the corresponding score results of erythema, scaling, and skin thickness of the above IMQ modelled mice are shown in FIG. 9, FIG. 10, FIG. 11, and FIG. 12, respectively. The skin phenotypes and skin pathological phenotypes are shown in FIG. 13 and FIG. 14, respectively.

[1] = system: Il17a, Il17f, Il22, Tnfa and Il23a; test: Quantitative PCR of proinflammatory genes in skin of IMQ-induced mice; type: in vivo, mouse; conditions: qPCR
Method: as §1, §2, §3
(§4) The skin lymphocytes of mice in the above groups are isolated and detected by flow cytometry (i.e., the detection of the proportion of IL17A^+ cells in dermal γδT subsets, the IL17A^+ cells are main effector cells mediated by the CaMK2γ pathway of psoriasis and can secrete a large number of IL-17 cytokines to aggravate psoriasis). […] Quantitative PCR is performed on known proinflammatory genes closely related to psoriasis, including Il17a, Il17f, Il22, Tnfa and Il23a.

[2] = target: T1, mouse-derived CaMK2γ protein (Mus musculus, UniProt Q923T9); test: SPR (Biacore, CM5 chip amine-coupling) affinity to mouse-derived CaMK2γ protein; conditions: mouse-derived full-length CaMK2γ protein, read-out: binding constant
T1 construct: a pET28A vector is firstly used to express and purify the mouse-derived full-length CaMK2γ protein; made in house; host or cells: pET28A vector
T1 sequence (Q923T9 whole entry): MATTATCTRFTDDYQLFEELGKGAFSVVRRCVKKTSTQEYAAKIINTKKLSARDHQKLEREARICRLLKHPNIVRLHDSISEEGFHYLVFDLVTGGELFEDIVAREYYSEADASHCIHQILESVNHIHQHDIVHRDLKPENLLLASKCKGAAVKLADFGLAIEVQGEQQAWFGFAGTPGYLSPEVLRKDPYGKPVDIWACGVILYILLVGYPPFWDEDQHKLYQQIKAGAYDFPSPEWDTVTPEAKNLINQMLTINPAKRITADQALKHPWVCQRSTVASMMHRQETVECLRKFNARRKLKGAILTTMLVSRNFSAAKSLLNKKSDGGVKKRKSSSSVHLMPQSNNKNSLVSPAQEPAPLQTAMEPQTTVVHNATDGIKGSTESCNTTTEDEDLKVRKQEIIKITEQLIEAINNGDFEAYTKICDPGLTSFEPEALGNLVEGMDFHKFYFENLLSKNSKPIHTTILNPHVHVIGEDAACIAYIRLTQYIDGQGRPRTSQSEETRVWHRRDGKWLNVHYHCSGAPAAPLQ
Method: (§5) In the embodiment of the disclosure, the affinity between T2533 and mouse-derived CaMK2γ protein are detected. Specifically, a pET28A vector is firstly used to express and purify the mouse-derived full-length CaMK2γ protein. Subsequently, the affinity is determined by the SPR method of Biacore™ using a CM5 chip amine-coupling.

CaMK2γ = target: T2, CaMK2γ (Homo sapiens, UniProt Q13555); test: ADP-Glo Kinase Assay + CaMK2γ Kinase Enzyme System (Promega #V9201); type: biochemical; conditions: inhibitor final concentration 10 μM, compared with positive control, p<0.0001
T2 construct: purchased Promega #V9201
T2 sequence (Q13555 whole entry): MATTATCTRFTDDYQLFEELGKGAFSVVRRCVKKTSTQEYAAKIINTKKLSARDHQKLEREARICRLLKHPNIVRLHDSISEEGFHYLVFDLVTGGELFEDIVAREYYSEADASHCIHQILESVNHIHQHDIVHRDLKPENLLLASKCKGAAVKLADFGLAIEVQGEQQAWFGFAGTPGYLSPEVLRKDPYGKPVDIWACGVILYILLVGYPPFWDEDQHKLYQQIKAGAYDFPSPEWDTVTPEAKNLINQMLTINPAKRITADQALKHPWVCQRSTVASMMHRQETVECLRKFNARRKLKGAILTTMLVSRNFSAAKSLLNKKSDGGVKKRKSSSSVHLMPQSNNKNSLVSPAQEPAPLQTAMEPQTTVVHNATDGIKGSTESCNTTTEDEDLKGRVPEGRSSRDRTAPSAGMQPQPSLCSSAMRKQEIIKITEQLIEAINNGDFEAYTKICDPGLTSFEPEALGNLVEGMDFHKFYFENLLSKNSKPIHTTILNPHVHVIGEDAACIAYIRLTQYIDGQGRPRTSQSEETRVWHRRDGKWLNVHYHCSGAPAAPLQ
Method: The kinase activity (%) of 130 compounds screened above are detected by ADP-Glo™ Kinase Assay+CaMK2γ Kinase Enzyme System (Promega #V9201), and the evaluation standard is kinase activity (%).
The kinase activity (%) of each well is calculated by the above method.
In the embodiment of the disclosure, the inhibition of T2533 on CaMK2γ protein activity is detected by ADP-Glo™ Kinase Assay+CaMK2 γ Kinase Enzyme System (Promega #V9201), and the specific experimental steps and settings are as follows.
(1) well setting: 2 blank wells, 2 normal reaction wells, 2 dimethyl sulfoxide (DMSO) control wells, 40 inhibitor wells with 2 plex wells for each inhibitor and 20 inhibitors. There are 46 wells in total.
(2) preparation of a kinase reaction reagent: • (a) preparation of 200 […] 4× Kinase Buffer is as shown in Table 5 below. 175 μL of the 4× Kinase Buffer is required for a single experiment, that is, 2.5*20+62.5+62.5=175 μL. The rest is prepared into 1× Kinase Buffer and used as blank well.
• (b) preparation of 10 μL 5× inhibitor solution (final concentration is 10 micromoles per liter abbreviated μM), and 2.5 μL/well. Specifically, the inhibitor is 10 millimoles per liter abbreviated mM, diluted to 1 mM with DMSO in a ratio of 1:9; the preparation method of DMSO is the same as that of inhibitor, which is used as the DMSO control well, as shown in Table 6 below. […]

[3] = system: IL17A^+ cells in dermal γδT subsets; test: Flow cytometry of skin lymphocytes of IMQ-induced mice; type: in vivo, mouse; conditions: 5 mg/kg; compared with IMQ-induced mice without T2533
Method: as §1
Seven-week-old C57/BL6 mice are bred and modeled in SPF-level environment. […]
In each group of 6 mice, the hair on the back of the mice is shaved to make the exposed skin reach 4 square centimeters. […] The skin of mice is scored every day, the mice are euthanized on Day 4, and the skin tissues are taken for a series of detection.
as §4

[4] = target: T3, human-derived CaMK2γ protein (Homo sapiens, UniProt Q13555); test: SPR (Biacore, CM5 chip amine-coupling) affinity to human-derived CaMK2γ protein; conditions: human-derived full-length CaMK2γ protein, read-out: binding constant
T3 construct: a pET28A vector is firstly used to express and purify the human-derived full-length CaMK2γ protein; made in house; host or cells: pET28A vector
T3 sequence (Q13555 whole entry): as above
Method: as §5, with “human-derived” for “mouse-derived”, “surface plasmon resonance (SPR)” for “SPR”

pKd [2]: 4.16
inhibition effect on kinase activity (%) (CaMK2γ; listed as compound I): most significant inhibition effect
pKd [4]: 4.60
SMILES: CN1CCC(=C2c3ccccc3CCn3c(C=O)cnc32)CC1 [T2533, Alcaftadine]
inflammatory phenotype of IMQ-induced mice (IMQ-induced mice; 2.5 mg/kg): reduces the inflammatory phenotype
inflammatory phenotype of IMQ-induced mice (IMQ-induced mice; 5 mg/kg): most significant
inflammatory phenotype of IMQ-induced mice (IMQ-induced mice; 10 mg/kg): reduces the inflammatory phenotype
expression of Il17a in the skin ([1]; 2.5 mg/kg): decrease significantly
expression of Il17f in the skin ([1]; 2.5 mg/kg): decrease significantly
expression of Il22 in the skin ([1]; 2.5 mg/kg): unchanged
expression of Il23a in the skin ([1]; 2.5 mg/kg): unchanged
expression of Tnfa in the skin ([1]; 2.5 mg/kg): unchanged
expression of Il17a in the skin ([1]; 5 mg/kg): decrease significantly
expression of Il17f in the skin ([1]; 5 mg/kg): decrease significantly
expression of Il22 in the skin ([1]; 5 mg/kg): unchanged
expression of Il23a in the skin ([1]; 5 mg/kg): decrease significantly
expression of Tnfa in the skin ([1]; 5 mg/kg): decrease significantly
inhibition effect on kinase activity (%) (CaMK2γ): effectively reduce the expression of CaMK2γ protein
proportion of IL-17A^+ cells in dermal γδT subsets [3]: significantly reduced
